Experimental data as given in patent US10314313B2, “Antimicrobial materials exhibiting synergistic efficacy” (CORNING INCORPORATED, priority 2015, dated 2019).

Assays:
[1] = system: marine organisms; settings: cited from earlier work
[2] = system: bacteria; settings: cited from earlier work
[3] = system: mildew; test: Amount of biocide necessary to inhibit fungi growth, mildew (FIG. 2); format: cell-based
Description: (§1) The amount of ZnPT and copper-containing glass necessary to inhibit fungi growth was evaluated.

[4] = system: fungi; settings: alone
[5] = system: mold; test: Amount of biocide necessary to inhibit fungi growth, mold (FIG. 1); format: cell-based
Description: as §1

[6] = system: algae; settings: in combination with Cu; cited from earlier work

[O-][n+]1ccccc1[S][Cu][S]c1cccc[n+]1[O-] [CuPT]
toxicity to marine organisms [1]: more toxic than ZnPT

N#Cc1c(-c2ccc(Cl)cc2)[nH]c(C(F)(F)F)c1Br [Tralopyril, 4-bromo-2-(4-chlorophenyl)-5-(trifluoromethyl)-1H-pyrrole-3-carbonitrile]
activity against bacteria [2]: not sufficient

Zinc pyrithione [ZnPT]
amount needed to reduce mildew growth [3]: 100 g/gallon
inhibition of fungi [4]: no inhibition of fungi
amount needed to reduce mold growth [5]: 10 g/gallon
algaecide activity, concentration range [6]: 1-100 ppm (μg/L)
